Laboratory results published in patent publication US10035790B2, “RORγ modulators” (BRISTOL-MYERS SQUIBB COMPANY, priority 2012, dated 2018).

Target: T1, ligand binding domain of human RORγ (A262-S507) (Homo sapiens, UniProt P51449)
T1 construct: made in house; host or cells: E. coli
T1 sequence (P51449 262-507): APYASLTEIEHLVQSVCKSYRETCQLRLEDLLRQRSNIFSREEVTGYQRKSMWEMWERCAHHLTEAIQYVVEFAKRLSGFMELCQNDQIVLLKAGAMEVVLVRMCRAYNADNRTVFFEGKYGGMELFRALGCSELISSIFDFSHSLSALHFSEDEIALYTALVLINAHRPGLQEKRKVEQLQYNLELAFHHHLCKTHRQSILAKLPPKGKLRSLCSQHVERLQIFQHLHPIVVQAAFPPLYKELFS
Experiment: General RORγ SPA binding assay (competition with [3H]25-hydroxycholesterol)
Details: RORγ SPA binding assay, inhibition of [3H]25-hydroxycholesterol binding; read-out: IC50
Summary of the method: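 Scintillation counts from copper His-tag SPA beads (4 mg/mL, 30 min) gave percent inhibition of radioligand binding, from which IC50 values are derived. The E. coli-expressed His-tagged domain (50 nM) is first exposed to compound for 15 min at room temperature in PBS containing 0.5% fatty acid free BSA.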

Row | IC50 | SMILES
1 | 13.2 nM | Cc1ncc(C(C)(F)COc2cccc(C(F)(F)F)n2)c(C2CCN(C(=O)Nc3c(F)cccc3C(F)(F)F)CC2)n1 (stereo not drawn) [Compound E13, 4-[5-(1-Fluoro-1-methyl-2-{[6-(trifluoromethyl)pyridin-2-yl]oxy}ethyl)-2-methylpyrimidin-4-yl]-N-[2-fluoro-6-(trifluoromethyl)phenyl]piperidine-1-carboxamide]
2 | 750 nM | COC(=O)C(NC(=O)c1cnc(C)nc1C1CCN(C(=O)Cc2c(F)cccc2F)CC1)c1cccc(Cl)c1 (stereo not drawn) [Compound A75, methyl 2-(3-chlorophenyl)-2-(4-(1-(2-(2,6-difluorophenyl)acetyl)piperidin-4-yl)-2-methylpyrimidine-5-carboxamido)acetate]
3 | 26.4 nM | O=C(NCc1ccc(Cl)c(Cl)c1)c1cncnc1C1CCN(C(=O)Cc2c(F)cccc2Cl)CC1 [Compound A6, 4-(1-(2-(2-chloro-6-fluorophenyl)acetyl)piperidin-4-yl)-N-(3,4-dichlorobenzyl)pyrimidine-5-carboxamide]
4 | 21.4 nM | C/C(=N\Oc1cc(Cl)nc(C(F)(F)F)c1)c1cnc(C)nc1C1CCN(C(=O)Nc2c(F)cccc2F)CC1 [Compound B40, 4-{5-[(1E)-N-{[2-chloro-6-(trifluoromethyl)pyridin-4-yl]oxy}ethanimidoyl]-2-methylpyrimidin-4-yl}-N-(2,6-difluorophenyl)piperidine-1-carboxamide]
5 | 1670 nM | C/C(=N/Oc1cc(C)cc(C)c1)c1cnc(C)nc1C1CCN(C(=O)Cc2c(F)cccc2F)CC1 [Compound B10, (Z)-2-(2,6-difluorophenyl)-1-(4-(5-(1-((3,5-dimethylphenoxy)imino)ethyl)-2-methylpyrimidin-4-yl)piperidin-1-yl)ethanone]
6 | 155 nM | Cc1cc(C)cc(CNC(=O)c2cnc(C)nc2C2CCN(C(=O)Cc3cccc4ccccc34)CC2)c1 [Compound A19, N-(3,5-dimethylbenzyl)-2-methyl-4-(1-(2-(naphthalen-1-yl)acetyl)piperidin-4-yl)pyrimidine-5-carboxamide]
7 | 30.2 nM | Cc1nc(N)nc(C2CCN(C(=O)Nc3ccccc3Cl)CC2)c1-c1nnc(-c2ccnc(C(F)(F)F)n2)o1 [Compound C71, 4-(2-Amino-6-methyl-5-{5-[2-(trifluoromethyl)pyrimidin-4-yl]-1,3,4-oxadiazol-2-yl}pyrimidin-4-yl)-N-(2-chlorophenyl)piperidine-1-carboxamide]
8 | 169 nM | C/C(=N\Oc1cccc(C(F)(F)F)n1)c1cnc(C)nc1C1CCN(C(=O)Nc2c(F)cccc2F)CC1 [Compound B38, N-(2,6-Difluorophenyl)-4-{2-methyl-5-[(1E)-N-{[6-(trifluoromethyl)pyridin-2-yl]oxy}ethanimidoyl]pyrimidin-4-yl}piperidine-1-carboxamide]
9 | 176 nM | Cc1ncc(C(N)(COc2cccc(C(F)(F)F)n2)C(N)=O)c(C2CCN(C(=O)Nc3c(F)cccc3F)CC2)n1 (stereo not drawn) [Compound N49, 4-{5-[1,2-Diamino-2-oxo-1-({[6-(trifluoromethyl)pyridin-2-yl]oxy}methyl)ethyl]-2-methylpyrimidin-4-yl}-N-(2,6-difluorophenyl)piperidine-1-carboxamide]
10 | 215 nM | Cc1cc(C)cc(CNC(=O)c2cnc(C)nc2C2CCN(C(=O)c3ccccc3Cl)CC2)c1 [Compound A24, 4-(1-(2-chlorobenzoyl)piperidin-4-yl)-N-(3,5-dimethylbenzyl)-2-methylpyrimidine-5-carboxamide]
11 | 1630 nM | Cc1cc(C)cc(CNC(=O)c2cnc(C)nc2C2CCN(C(=O)C3(c4ccccc4F)CCCC3)CC2)c1 [Compound A31]
12 | 84 nM | C/C(=N\Oc1cccc(C)c1C)c1cnc(C)nc1C1CCN(C(=O)Cc2c(F)cccc2F)CC1 [Compound B22, (E)-2-(2,6-difluorophenyl)-1-(4-(5-(1-((2,3-dimethylphenoxy)imino)ethyl)-2-methylpyrimidin-4-yl)piperidin-1-yl)ethanone]
13 | 151 nM | C/C(=N\Oc1cc(C)nc(C(F)(F)F)n1)c1cnc(C)nc1C1CCN(C(=O)Nc2c(F)cccc2F)CC1 [Compound B42, N-(2,6-difluorophenyl)-4-{2-methyl-5-[(1E)-N-{[6-methyl-2-(trifluoromethyl)pyrimidin-4-yl]oxy}ethanimidoyl]pyrimidin-4-yl}piperidine-1-carboxamide]
14 | 5 nM | Cc1ncc(C(C)(O)COc2cccc(C(F)(F)F)n2)c(C2CCN(C(=O)Cc3c(F)cccc3F)CC2)n1 (stereo not drawn) [Compound D24, 2-(4-{1-[(2,6-difluorophenyl)acetyl]piperidin-4-yl}-2-methylpyrimidin-5-yl)-1-{[6-(trifluoromethyl)pyridin-2-yl]oxy}propan-2-ol]
15 | 426 nM | Cc1cc(CNC(=O)c2cnc(C)nc2C2CCN(C(=O)Cc3c(F)cccc3F)CC2)cc(C)n1 [Compound A73, 4-(1-(2-(2,6-difluorophenyl)acetyl)piperidin-4-yl)-N-((2,6-dimethylpyridin-4-yl)methyl)-2-methylpyrimidine-5-carboxamide]
16 | 63.9 nM | Cc1nc(N)nc(C2CCN(C(=O)Nc3c(F)cccc3F)CC2)c1-c1nnc(-c2ccnc(C(F)(F)F)n2)o1 [Compound C48, 4-(2-Amino-6-methyl-5-{5-[2-(trifluoromethyl)pyrimidin-4-yl]-1,3,4-oxadiazol-2-yl}pyrimidin-4-yl)-N-(2,6-difluorophenyl)piperidine-1-carboxamide]
17 | 6.3 nM | COCC(C)(OCc1cc(C)cc(C)c1)c1cnc(C)nc1C1CCN(C(=O)Cc2c(F)cccc2F)CC1 (stereo not drawn) [Compound E1, 2-(2,6-Difluorophenyl)-1-(4-(5-(2-(3,5-dimethylbenzyloxy)-1-methoxypropan-2-yl)-2-methylpyrimidin-4-yl)piperidin-1-yl)ethanone]
18 | 10.9 nM | Cc1nc(C2CCN(C(=O)Cc3c(F)cccc3F)CC2)c(C(=O)NCc2cccc(Cl)c2)c(=O)[nH]1 [Compound I4, N-(3-chlorobenzyl)-4-(1-(2-(2,6-difluorophenyl)acetyl)piperidin-4-yl)-2-methyl-6-oxo-1,6-dihydropyrimidine-5-carboxamide]
19 | 267 nM | Cc1cc(C)cc(CNC(=O)c2cnc(C)nc2C2CCN(C(=O)Cc3ccccc3)CC2)c1 [Compound A25, N-(3,5-dimethylbenzyl)-2-methyl-4-(1-(2-phenylacetyl)piperidin-4-yl) pyrimidine-5-carboxamide]
20 | 12.3 nM | Cc1ncc(C(N)COc2cccc(C(F)(F)F)n2)c(C2CCN(C(=O)Nc3c(F)cccc3F)CC2)n1 (stereo not drawn) [Compound N23, 4-[5-(1-Amino-2-{[6-(trifluoromethyl)pyridin-2-yl]oxy}ethyl)-2-methylpyrimidin-4-yl]-N-(2,6-difluorophenyl)piperidine-1-carboxamide]
21 | 11.2 nM | C/C(=N\Oc1cc(C)ccc1C)c1cnc(C)nc1C1CCN(C(=O)Cc2c(F)cccc2F)CC1 [Compound B18, (E)-2-(2,6-difluorophenyl)-1-(4-(5-(1-((2,5-dimethylphenoxy)imino)ethyl)-2-methylpyrimidin-4-yl)piperidin-1-yl)ethanone]
22 | 3.6 nM | CC(=O)NCC(O)(COc1cccc(C(F)(F)F)n1)c1cnc(C)nc1C1CCN(C(=O)Oc2c(F)cccc2F)CC1 (stereo not drawn) [Compound N47, 2,6-Difluorophenyl 4-{5-[2-(acetylamino)-1-hydroxy-1-({[6-(trifluoromethyl)pyridin-2-yl]oxy}methyl)ethyl]-2-methylpyrimidin-4-yl}piperidine-1-carboxylate]
23 | 43.4 nM | Cc1ncc(C(=O)NCc2ccc(Cl)cc2)c(C2CCN(C(=O)Cc3c(F)cccc3F)CC2)n1 [Compound A62, N-(4-chlorobenzyl)-4-(1-(2-(2,6-difluorophenyl)acetyl)piperidin-4-yl)-2-methylpyrimidine-5-carboxamide]
24 | 4.7 nM | Cc1cc(C)cc(CNC(=O)c2cnc(C)nc2C2CCN(C(=O)Cc3c(F)cccc3F)CC2)c1 [Compound A1]
25 | 8.6 nM | C/C(=N\Oc1cccc(C(F)(F)F)c1)c1cnc(N)nc1C1CCN(C(=O)Nc2c(F)cccc2F)CC1 [Compound B51, 4-{2-Amino-5-[(1E)-N-{[3-(trifluoromethyl)phenyl]oxy}ethanimidoyl]pyrimidin-4-yl}-N-(2,6-difluorophenyl)piperidine-1-carboxamide]
26 | 65.9 nM | Cc1nc(C)c(-c2ncc(-c3cccc(Cl)c3)o2)c(C2CCN(C(=O)Cc3c(F)cccc3F)CC2)n1 [Compound C66, 5-[5-(3-Chlorophenyl)-1,3-oxazol-2-yl]-4-{1-[(2,6-difluorophenyl)acetyl]piperidin-4-yl}-2,6-dimethylpyrimidine]
27 | 4200 nM | O=C(NCc1ccc(Cl)c(Cl)c1)c1cnc(-c2ccccc2)nc1C1CCN(C(=O)Cc2c(F)cccc2F)CC1 [Compound A37, N-(3,4-dichlorobenzyl)-4-(1-(2-(2,6-difluorophenyl)acetyl)piperidin-4-yl)-2-phenylpyrimidine-5-carboxamide]
28 | 58 nM | Cc1cc(C)cc(CNC(=O)c2cnc(C)nc2C2CCN(CCc3c(F)cccc3F)CC2)c1 [Compound A99, 4-(1-(2,6-difluorophenethyl)piperidin-4-yl)-N-(3,5-dimethylbenzyl)-2-methylpyrimidine-5-carboxamide]
29 | 16 nM | CCOc1ncc(C(=O)NCc2cccc(Cl)c2)c(C2CCN(C(=O)Cc3c(F)cccc3F)CC2)n1 [Compound A93, N-(3-chlorobenzyl)-4-(1-(2-(2,6-difluorophenyl)acetyl)piperidin-4-yl)-2-ethoxypyrimidine-5-carboxamide]
30 | 5.9 nM | C/C(=N\Oc1cccc(F)c1)c1cnc(C)nc1C1CCN(C(=O)Cc2c(F)cccc2F)CC1 [Compound B16, (E)-2-(2,6-difluorophenyl)-1-(4-(5-(1-((3-fluorophenoxy)imino)ethyl)-2-methylpyrimidin-4-yl)piperidin-1-yl)ethanone]
